In ChEMBL document CHEMBL4261526 (Medchemcomm, 2017):

Columns and labels:
Acetylcholinesterase [1] = target: T1, Acetylcholinesterase (Homo sapiens, UniProt P22303); assay: Inhibition of recombinant human AChE using acetylthiocholine iodide as substrate preincubated for 20 mins followed by substrate addition and measured for 5 mins by Ellman's assay
Cholinesterase [2] = target: T2, Cholinesterase (Homo sapiens, UniProt P06276); assay: Inhibition of human serum BuChE using butyrylthiocholine iodide as substrate preincubated for 20 mins followed by substrate addition and measured for 5 mins by Ellman's assay
in vitro [3] = details: human, HepG2 cells
Description: Cytotoxicity against human HepG2 cells assessed as cell viability at 1 uM by MTT assay relative to control

in vitro [4] = details: human, HepG2 cells; remark: listed apart in the source
Description: Cytotoxicity against human HepG2 cells assessed as cell viability at 10 uM by MTT assay relative to control

in vitro [5] = details: human, HepG2 cells; remark: listed apart in the source
Description: Cytotoxicity against human HepG2 cells assessed as cell viability at 100 uM by MTT assay relative to control

in vitro [6] = details: human, HepG2 cells; remark: listed apart in the source
Description: Cytotoxicity against human HepG2 cells assessed as cell viability at 300 uM by MTT assay relative to control

Acetylcholinesterase [7] = target: T1, Acetylcholinesterase; assay: Potency index, ratio of tacrine IC50 to test compound IC50 for recombinant human AChE
Cholinesterase [8] = target: T2, Cholinesterase; assay: Potency index, ratio of tacrine IC50 to test compound IC50 for human serum BuChE
Acetylcholinesterase [9] = target: T1, Acetylcholinesterase; assay: Inhibition of recombinant human AChE using acetylthiocholine iodide as substrate preincubated for 30 mins followed by substrate addition and measured for 20 mins by Ellman's assay
Cholinesterase [10] = target: T2, Cholinesterase; assay: Inhibition of recombinant human BuChE using butyrylthiocholine as substrate preincubated for 30 mins followed by substrate addition and measured for 20 mins by Ellman's assay
Homo sapiens = organism: Homo sapiens; assay: Selectivity ratio of IC50 for recombinant human BuChE to IC50 for recombinant human AChE

T1 sequence (P22303 whole entry): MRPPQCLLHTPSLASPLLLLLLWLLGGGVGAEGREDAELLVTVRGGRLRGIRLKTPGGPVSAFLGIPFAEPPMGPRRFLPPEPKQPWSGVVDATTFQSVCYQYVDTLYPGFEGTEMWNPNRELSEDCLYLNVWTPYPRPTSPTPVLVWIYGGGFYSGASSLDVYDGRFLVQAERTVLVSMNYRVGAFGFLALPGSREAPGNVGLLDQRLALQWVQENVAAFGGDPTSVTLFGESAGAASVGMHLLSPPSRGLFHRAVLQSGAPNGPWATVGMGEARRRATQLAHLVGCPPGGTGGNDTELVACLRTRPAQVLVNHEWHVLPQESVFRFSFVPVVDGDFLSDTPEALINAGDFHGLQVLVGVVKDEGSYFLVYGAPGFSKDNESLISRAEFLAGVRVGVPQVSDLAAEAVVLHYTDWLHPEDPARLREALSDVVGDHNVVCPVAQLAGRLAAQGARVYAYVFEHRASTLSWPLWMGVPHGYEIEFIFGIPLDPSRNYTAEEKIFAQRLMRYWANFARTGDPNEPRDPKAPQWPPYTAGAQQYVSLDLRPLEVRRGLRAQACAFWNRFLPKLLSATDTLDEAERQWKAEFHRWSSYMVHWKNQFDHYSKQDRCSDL
T2 sequence (P06276 whole entry): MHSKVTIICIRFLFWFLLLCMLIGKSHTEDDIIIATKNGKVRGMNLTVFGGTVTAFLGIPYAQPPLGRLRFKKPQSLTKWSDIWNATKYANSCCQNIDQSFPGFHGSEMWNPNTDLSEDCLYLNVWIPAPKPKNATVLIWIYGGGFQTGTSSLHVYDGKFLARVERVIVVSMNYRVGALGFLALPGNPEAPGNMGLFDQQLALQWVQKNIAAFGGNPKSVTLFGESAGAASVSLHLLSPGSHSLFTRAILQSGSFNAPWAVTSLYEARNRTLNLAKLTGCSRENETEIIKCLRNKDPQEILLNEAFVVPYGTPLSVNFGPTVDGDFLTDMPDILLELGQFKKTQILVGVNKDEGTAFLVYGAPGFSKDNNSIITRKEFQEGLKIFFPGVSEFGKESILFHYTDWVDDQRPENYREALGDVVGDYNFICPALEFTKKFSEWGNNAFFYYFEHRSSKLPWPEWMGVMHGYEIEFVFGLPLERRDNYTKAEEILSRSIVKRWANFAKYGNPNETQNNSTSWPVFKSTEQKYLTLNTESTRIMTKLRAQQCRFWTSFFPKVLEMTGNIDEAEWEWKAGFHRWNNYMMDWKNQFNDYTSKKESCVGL

SMILES | IC50 (Acetylcholinesterase [1]) | IC50 (Cholinesterase [2]) | viability at 1 µM (in vitro [3]) | viability at 10 µM (in vitro [4]) | viability at 100 µM (in vitro [5]) | viability at 300 µM (in vitro [6]) | Ratio IC50 (Acetylcholinesterase [7]) | Ratio IC50 (Cholinesterase [8]) | IC50 (Acetylcholinesterase [9]) | IC50 (Cholinesterase [10]) | Ratio IC50 (Homo sapiens)
Cn1c2nc3ccccc3c-2c(NCCCCNc2c3c(nc4ccccc24)CCCC3)c2ccccc21 | 53 nM | 21.8 nM | 99.5% | 37.2% | 33.8% | 34.8% |  |  |  |  | 
Cn1c2nc3ccccc3c-2c(NCCCCCCNc2c3c(nc4ccccc24)CCCC3)c2ccccc21 | 1.25 nM | 9 nM | 40.9% | 34.9% | 36.2% | 36.5% |  |  |  |  | 
Cn1c2nc3ccccc3c-2c(NCCCCCCCCNc2c3c(nc4ccccc24)CCCC3)c2ccccc21 | 0.95 nM | 2.29 nM | 78.1% | 41.4% | 38.4% | 37.9% | 368 | 17.4 |  |  | 
Nc1c2c(nc3cc(Cl)ccc13)C[C@H]1C=C(CCCCn3cc(CO)nn3)C[C@H]2C1 |  |  |  |  |  |  |  |  | 0.43 nM | 210 nM | 488
